This is an account of results in article PMC4620497 (Scientific Reports, 2015).

SMILES strings stand for the structures.

For test [1], the target named is PAK1 (Homo sapiens, UniProt Q13153). Also on record: method as in earlier work. The note with it: Table S1; cited from earlier work.
Test [2] deals with T1, AAK1 (Homo sapiens, UniProt Q2M2I8).
T1 construct: purchased DiscoveRx KINOMEscan (Ambit Biosciences)
Put plainly: KINOMEscan panel screen. It counts as binding. The note with it: read-out: Percent Control(%).

Test [3] concerns the target T2, AKT1 (Homo sapiens, UniProt P31749).
T2 construct: purchased DiscoveRx KINOMEscan (Ambit Biosciences)
Put plainly: KINOMEscan panel screen. In kind it is binding. The note with it: read-out: Percent Control(%).

Test [4] concerns the target T3, ALK(C1156Y) (Homo sapiens, UniProt Q9UM73, C1156Y).
T3 construct: purchased DiscoveRx KINOMEscan (Ambit Biosciences)
Put plainly: KINOMEscan panel screen. In kind it is binding. Particulars: read-out: Percent Control(%).

Test [5] addresses T4, ANKK1 (Homo sapiens, UniProt Q8NFD2).
T4 construct: purchased DiscoveRx KINOMEscan (Ambit Biosciences)
As to the kind of experiment: KINOMEscan panel screen. Particulars: read-out: Percent Control(%). In kind it is binding.

In test [6] the target is T5, DCAMKL1 (Homo sapiens, UniProt O15075).
T5 construct: purchased DiscoveRx KINOMEscan (Ambit Biosciences)
As to the kind of experiment: KINOMEscan panel screen. It counts as binding. Particulars: read-out: Percent Control(%).

The subject of test [7] is EGFR(L747-T751del,Sins). As to the kind of experiment: KINOMEscan panel screen. It counts as binding. Particulars: 10 μM.
Test [8] deals with T6, EGFR(L861Q) (Homo sapiens, UniProt P00533, L861Q).
T6 construct: purchased DiscoveRx KINOMEscan (Ambit Biosciences)
As to the kind of experiment: KINOMEscan panel screen. It counts as binding. The note with it: read-out: Percent Control(%).

Test [9] addresses ERN1 (Homo sapiens, UniProt O75460). As to the kind of experiment: KINOMEscan panel screen. It counts as binding. Particulars: read-out: Percent Control(%).
In test [10] the target is T7, GRK4 (Homo sapiens, UniProt P32298).
T7 construct: purchased DiscoveRx KINOMEscan (Ambit Biosciences)
As to the kind of experiment: KINOMEscan panel screen. It counts as binding. Particulars: read-out: Percent Control(%).

In test [11] the target is T8, GSK3B (Homo sapiens, UniProt P49841).
T8 construct: purchased DiscoveRx KINOMEscan (Ambit Biosciences)
Put plainly: KINOMEscan panel screen. In kind it is binding. Particulars: read-out: Percent Control(%).

In test [12] the target is T9, KIT(D816H) (Homo sapiens, UniProt P10721, D816H).
T9 construct: purchased DiscoveRx KINOMEscan (Ambit Biosciences)
Put plainly: KINOMEscan panel screen. In kind it is binding. The note with it: read-out: Percent Control(%).

For test [13], the target named is T10, MARK3 (Homo sapiens, UniProt P27448).
T10 construct: purchased DiscoveRx KINOMEscan (Ambit Biosciences)
Put plainly: KINOMEscan panel screen. It counts as binding. Particulars: read-out: Percent Control(%).

Test [14] concerns the target T11, MYLK2 (Homo sapiens, UniProt Q9H1R3).
T11 construct: purchased DiscoveRx KINOMEscan (Ambit Biosciences)
Put plainly: KINOMEscan panel screen. Particulars: read-out: Percent Control(%). It counts as binding.

Test [15] concerns the target T12, PFPK5(P.falciparum) (Plasmodium falciparum, UniProt P61075).
T12 construct: purchased DiscoveRx KINOMEscan (Ambit Biosciences)
As to the kind of experiment: KINOMEscan panel screen. The note with it: read-out: Percent Control(%). It counts as binding.

Test [16] deals with T13, PIK3CA(C420R) (Homo sapiens, UniProt P42336, C420R).
T13 construct: purchased DiscoveRx KINOMEscan (Ambit Biosciences)
As to the kind of experiment: KINOMEscan panel screen. It counts as binding. The note with it: read-out: Percent Control(%).

Test [17] addresses T14, PIP5K1A (Homo sapiens, UniProt Q99755).
T14 construct: purchased DiscoveRx KINOMEscan (Ambit Biosciences)
Put plainly: KINOMEscan panel screen. It counts as binding. Particulars: read-out: Percent Control(%).

Test [18] has as its target T15, PLK2 (Homo sapiens, UniProt Q9NYY3).
T15 construct: purchased DiscoveRx KINOMEscan (Ambit Biosciences)
Put plainly: KINOMEscan panel screen. The note with it: read-out: Percent Control(%). It counts as binding.

Test [19] addresses T16, TAOK3 (Homo sapiens, UniProt Q9H2K8).
T16 construct: purchased DiscoveRx KINOMEscan (Ambit Biosciences)
Put plainly: KINOMEscan panel screen. It counts as binding. Particulars: read-out: Percent Control(%).

Test [20] deals with T17, TEC (Homo sapiens, UniProt P42680).
T17 construct: purchased DiscoveRx KINOMEscan (Ambit Biosciences)
As to the kind of experiment: KINOMEscan panel screen. It counts as binding. Particulars: read-out: Percent Control(%).

For test [21], the target named is T18, TNIK (Homo sapiens, UniProt Q9UKE5).
T18 construct: purchased DiscoveRx KINOMEscan (Ambit Biosciences)
Put plainly: KINOMEscan panel screen. It counts as binding. Particulars: read-out: Percent Control(%).

Test [22] has as its target T19, TSSK1B (Homo sapiens, UniProt Q9BXA7).
T19 construct: purchased DiscoveRx KINOMEscan (Ambit Biosciences)
As to the kind of experiment: KINOMEscan panel screen. It counts as binding. The note with it: read-out: Percent Control(%).

Test [23] addresses T20, TTK (Homo sapiens, UniProt P33981).
T20 construct: purchased DiscoveRx KINOMEscan (Ambit Biosciences)
As to the kind of experiment: KINOMEscan panel screen. In kind it is binding. Particulars: read-out: Percent Control(%).

For test [24], the target named is T21, TYK2(JH1domain-catalytic) (Homo sapiens, UniProt P29597).
T21 construct: TYK2(JH1domain-catalytic); purchased DiscoveRx KINOMEscan (Ambit Biosciences)
Put plainly: KINOMEscan panel screen. It counts as binding. Particulars: read-out: Percent Control(%).

For test [25], the target named is T22, TYRO3 (Homo sapiens, UniProt Q06418).
T22 construct: purchased DiscoveRx KINOMEscan (Ambit Biosciences)
As to the kind of experiment: KINOMEscan panel screen. It counts as binding. Particulars: read-out: Percent Control(%).

Test [26] has as its target T23, ULK1 (Homo sapiens, UniProt O75385).
T23 construct: purchased DiscoveRx KINOMEscan (Ambit Biosciences)
Put plainly: KINOMEscan panel screen. It counts as binding. The note with it: read-out: Percent Control(%).

Test [27] concerns the target T24, VEGFR2 (Homo sapiens, UniProt P35968).
T24 construct: DNA tag (qPCR read-out); purchased Ambit Biosciences (KINOMEscan service)
Put plainly: KINOMEscan panel screen. In kind it is binding. The note with it: read-out: Percent Control(%).

For test [28], the system named is MV4-11 cells. Put plainly: Apoptosis assay (AnnexinV/PI staining). In kind it is cell-based, human. The note with it: 3 nM. As to the method: PI staining was used to detect the cell cycle status. […] The induction of apoptosis following treatment of MV4-11 cells was examined by AnnexinV/PI staining assays.
Flow cytometry was used for cell cycle and apoptosis assays. MV4-11 cells were treated with SKLB-677 for 24 h, and then the cells were harvested and washed with PBS. Cell Cycle and Apoptosis Analysis Kit (Beyotime) was used for cell cycle analysis and the Annexin V-FITC & PI Cell Apoptosis Analysis Kit (KeyGENE BioTECH) was used for apoptosis assays. The data was analyzed using FLOWJO software (V7.6.5).
Figure 2 SKLB-677 inhibited FLT3 activation and induced cell cycle arrest and apoptosis. (a) MV4-11 cells were treated with various concentrations of SKLB-677 or 0.1% DMSO for 1 h. The phosphorylation levels of FLT3 and downstream signal proteins were assessed using antibodies against total FLT3 (FLT3), phosphorylated Y589/591 FLT3 (p-FLT3), total STAT5 (STAT5), phosphorylated Y694 STAT5 (p-STAT5), total p44/42 MAPK (Erk1/2), and phosphorylated Y202/204 p44/42 MAPK (p-Erk1/2). β-actin was used as a loading control. (b) Primary PBMCs isolated from AML patients (FLT3-ITD positive) were treated with various concentrations of SKLB-677 or 0.1% DMSO for 6 h. The phosphorylation levels of FLT3 and downstream signal proteins were detected used the same method as that in panel a. […]

Test [29] has as its system MDA-MB-231. As to the kind of experiment: MTT cell viability assay. Particulars: Homo sapiens, MDA-MB-231, 72 h.

T9 sequence (P10721 26-976 D816H): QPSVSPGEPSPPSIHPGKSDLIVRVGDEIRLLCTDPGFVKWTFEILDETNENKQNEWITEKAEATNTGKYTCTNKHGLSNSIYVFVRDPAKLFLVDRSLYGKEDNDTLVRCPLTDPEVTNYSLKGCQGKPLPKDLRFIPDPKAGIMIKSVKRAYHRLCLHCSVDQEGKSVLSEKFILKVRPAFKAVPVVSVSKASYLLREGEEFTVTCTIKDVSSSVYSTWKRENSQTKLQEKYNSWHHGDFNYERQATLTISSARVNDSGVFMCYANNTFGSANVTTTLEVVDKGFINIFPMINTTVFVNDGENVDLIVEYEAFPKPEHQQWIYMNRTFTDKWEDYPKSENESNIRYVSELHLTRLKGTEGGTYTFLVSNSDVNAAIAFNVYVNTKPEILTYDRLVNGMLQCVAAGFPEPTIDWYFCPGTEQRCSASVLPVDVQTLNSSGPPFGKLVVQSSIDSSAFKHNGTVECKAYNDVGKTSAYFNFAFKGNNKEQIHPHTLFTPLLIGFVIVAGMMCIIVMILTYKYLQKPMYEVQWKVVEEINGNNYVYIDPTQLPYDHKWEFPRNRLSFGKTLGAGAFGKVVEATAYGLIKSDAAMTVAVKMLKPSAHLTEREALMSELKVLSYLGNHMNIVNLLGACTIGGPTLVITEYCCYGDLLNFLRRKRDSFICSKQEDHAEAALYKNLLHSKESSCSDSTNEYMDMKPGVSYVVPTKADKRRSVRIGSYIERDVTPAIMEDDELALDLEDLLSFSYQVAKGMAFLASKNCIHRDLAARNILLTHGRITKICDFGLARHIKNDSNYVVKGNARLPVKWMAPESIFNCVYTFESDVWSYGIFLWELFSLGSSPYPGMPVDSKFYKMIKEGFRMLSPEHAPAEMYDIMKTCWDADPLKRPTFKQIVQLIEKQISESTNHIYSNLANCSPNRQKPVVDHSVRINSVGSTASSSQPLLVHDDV
T3 sequence (Q9UM73 19-1620 C1156Y): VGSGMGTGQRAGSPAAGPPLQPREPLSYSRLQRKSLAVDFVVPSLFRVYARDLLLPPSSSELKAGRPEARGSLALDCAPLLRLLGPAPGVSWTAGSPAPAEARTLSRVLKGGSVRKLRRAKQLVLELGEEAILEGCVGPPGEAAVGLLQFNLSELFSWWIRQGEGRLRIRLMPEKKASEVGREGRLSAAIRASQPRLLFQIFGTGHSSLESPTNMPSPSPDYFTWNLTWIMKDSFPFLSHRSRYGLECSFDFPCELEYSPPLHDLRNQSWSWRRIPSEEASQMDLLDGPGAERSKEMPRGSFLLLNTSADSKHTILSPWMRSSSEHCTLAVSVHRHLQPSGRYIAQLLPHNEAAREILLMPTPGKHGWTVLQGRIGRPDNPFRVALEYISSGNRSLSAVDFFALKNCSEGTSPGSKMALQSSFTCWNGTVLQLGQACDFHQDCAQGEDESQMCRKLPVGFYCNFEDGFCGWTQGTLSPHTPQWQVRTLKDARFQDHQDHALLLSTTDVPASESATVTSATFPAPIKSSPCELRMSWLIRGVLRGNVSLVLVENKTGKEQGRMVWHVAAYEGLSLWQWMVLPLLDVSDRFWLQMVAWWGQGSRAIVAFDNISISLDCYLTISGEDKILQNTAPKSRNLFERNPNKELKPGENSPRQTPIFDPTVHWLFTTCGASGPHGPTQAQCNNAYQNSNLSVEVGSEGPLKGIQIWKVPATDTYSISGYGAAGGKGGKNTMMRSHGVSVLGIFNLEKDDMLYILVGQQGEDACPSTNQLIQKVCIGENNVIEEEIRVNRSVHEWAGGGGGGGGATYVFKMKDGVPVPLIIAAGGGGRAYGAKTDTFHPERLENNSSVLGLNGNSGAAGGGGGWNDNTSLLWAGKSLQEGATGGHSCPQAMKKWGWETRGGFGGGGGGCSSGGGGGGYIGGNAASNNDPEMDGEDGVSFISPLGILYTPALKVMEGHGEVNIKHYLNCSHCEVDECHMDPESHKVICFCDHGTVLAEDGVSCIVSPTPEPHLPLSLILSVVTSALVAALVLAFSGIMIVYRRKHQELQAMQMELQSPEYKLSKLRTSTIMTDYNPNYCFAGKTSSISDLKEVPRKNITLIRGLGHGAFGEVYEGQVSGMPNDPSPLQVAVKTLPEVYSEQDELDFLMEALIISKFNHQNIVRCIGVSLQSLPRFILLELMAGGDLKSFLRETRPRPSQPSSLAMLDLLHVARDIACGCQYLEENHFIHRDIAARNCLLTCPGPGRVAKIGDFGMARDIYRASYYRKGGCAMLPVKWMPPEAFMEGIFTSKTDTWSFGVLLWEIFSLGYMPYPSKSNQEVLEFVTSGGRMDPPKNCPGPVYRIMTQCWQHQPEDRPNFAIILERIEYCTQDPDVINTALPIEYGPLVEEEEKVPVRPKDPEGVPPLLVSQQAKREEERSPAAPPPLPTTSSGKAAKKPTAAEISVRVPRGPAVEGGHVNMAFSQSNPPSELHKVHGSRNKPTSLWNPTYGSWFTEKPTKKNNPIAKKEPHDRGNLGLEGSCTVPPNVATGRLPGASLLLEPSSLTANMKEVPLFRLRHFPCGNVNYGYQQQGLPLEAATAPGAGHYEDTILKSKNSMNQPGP
T18 sequence (Q9UKE5 whole entry): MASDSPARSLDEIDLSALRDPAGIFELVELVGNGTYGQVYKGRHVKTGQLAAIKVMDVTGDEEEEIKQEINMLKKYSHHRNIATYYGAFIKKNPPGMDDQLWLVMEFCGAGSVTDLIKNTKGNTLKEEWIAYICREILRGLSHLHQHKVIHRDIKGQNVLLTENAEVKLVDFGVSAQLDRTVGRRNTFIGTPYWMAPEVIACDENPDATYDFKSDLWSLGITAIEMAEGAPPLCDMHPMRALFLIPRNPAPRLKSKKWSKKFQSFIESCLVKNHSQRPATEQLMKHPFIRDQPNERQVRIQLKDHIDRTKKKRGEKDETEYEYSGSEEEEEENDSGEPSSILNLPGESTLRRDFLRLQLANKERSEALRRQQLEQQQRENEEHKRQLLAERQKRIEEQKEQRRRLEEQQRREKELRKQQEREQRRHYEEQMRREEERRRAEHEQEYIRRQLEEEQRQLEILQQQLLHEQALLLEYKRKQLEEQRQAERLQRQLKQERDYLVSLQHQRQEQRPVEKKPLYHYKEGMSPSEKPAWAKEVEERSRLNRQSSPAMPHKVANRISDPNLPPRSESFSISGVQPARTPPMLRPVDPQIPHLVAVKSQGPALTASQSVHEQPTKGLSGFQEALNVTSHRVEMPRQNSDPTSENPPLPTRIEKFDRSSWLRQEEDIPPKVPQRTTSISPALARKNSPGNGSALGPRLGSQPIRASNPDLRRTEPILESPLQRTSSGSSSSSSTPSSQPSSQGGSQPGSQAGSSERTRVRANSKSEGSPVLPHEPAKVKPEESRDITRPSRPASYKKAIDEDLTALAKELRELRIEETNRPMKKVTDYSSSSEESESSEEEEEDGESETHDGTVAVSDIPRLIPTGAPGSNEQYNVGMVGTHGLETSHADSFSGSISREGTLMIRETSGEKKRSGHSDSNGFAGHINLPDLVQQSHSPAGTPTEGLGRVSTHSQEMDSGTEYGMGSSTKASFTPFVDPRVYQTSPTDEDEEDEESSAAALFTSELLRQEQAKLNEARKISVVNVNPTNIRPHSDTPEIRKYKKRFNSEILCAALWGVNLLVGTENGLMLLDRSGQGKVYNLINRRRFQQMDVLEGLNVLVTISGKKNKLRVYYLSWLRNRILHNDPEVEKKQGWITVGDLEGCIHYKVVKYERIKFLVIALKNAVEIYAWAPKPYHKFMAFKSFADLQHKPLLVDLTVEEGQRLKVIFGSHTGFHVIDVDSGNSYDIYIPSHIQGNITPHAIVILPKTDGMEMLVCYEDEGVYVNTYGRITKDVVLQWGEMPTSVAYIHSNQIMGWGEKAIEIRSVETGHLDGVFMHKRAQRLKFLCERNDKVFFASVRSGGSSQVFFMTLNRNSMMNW
T1 sequence (Q2M2I8 whole entry): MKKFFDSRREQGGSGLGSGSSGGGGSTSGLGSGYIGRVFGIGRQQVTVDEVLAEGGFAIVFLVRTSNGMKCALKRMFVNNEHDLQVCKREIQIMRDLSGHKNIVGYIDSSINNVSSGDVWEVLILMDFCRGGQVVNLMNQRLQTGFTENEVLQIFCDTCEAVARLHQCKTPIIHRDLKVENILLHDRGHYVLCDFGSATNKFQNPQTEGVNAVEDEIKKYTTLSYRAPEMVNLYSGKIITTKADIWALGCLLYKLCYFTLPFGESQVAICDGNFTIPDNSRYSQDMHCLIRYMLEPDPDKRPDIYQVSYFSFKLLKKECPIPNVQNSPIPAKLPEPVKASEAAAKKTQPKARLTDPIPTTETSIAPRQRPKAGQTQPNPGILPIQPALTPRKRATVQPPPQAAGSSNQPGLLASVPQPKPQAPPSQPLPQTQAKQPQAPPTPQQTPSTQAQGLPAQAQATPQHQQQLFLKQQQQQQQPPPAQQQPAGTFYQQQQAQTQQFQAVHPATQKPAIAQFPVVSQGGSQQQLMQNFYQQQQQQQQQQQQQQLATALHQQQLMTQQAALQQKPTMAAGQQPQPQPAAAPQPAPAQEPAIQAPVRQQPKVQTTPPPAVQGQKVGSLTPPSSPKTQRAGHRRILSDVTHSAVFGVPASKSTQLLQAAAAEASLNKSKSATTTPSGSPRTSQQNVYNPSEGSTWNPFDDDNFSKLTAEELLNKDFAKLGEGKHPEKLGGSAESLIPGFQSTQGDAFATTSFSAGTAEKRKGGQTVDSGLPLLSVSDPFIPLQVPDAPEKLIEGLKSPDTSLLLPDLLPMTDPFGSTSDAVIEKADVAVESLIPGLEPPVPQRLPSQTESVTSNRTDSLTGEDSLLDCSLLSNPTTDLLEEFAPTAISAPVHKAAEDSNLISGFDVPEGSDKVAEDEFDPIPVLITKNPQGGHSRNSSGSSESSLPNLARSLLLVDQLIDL

A word on the IC50: it is the concentration at which inhibition is half-maximal. Take `O=C(Nc1ccc(Oc2ncnc3[nH]ncc23)cc1)Nc1ccc(Cl)c(C(F)(F)F)c1` [Compound 1, 1-(4-(1H-pyrazolo[3,4-d]pyrimidin-4-yloxy)phenyl)-3-(4-chloro-3-(trifluoromethyl)phenyl)urea]: the half-inhibitory concentration (IC50) in test [1] was greater than 10 µM.
Take `CC(C)(C)c1cc(NC(=O)Nc2ccc(Oc3ncnc4[nH]ncc34)c(F)c2)no1` [SKLB-677, 1-(4-(1H-pyrazolo[3,4-d]pyrimidin-4-yloxy)-3-fluorophenyl)-3-(5-tert-butylisoxazol-3-yl)urea]: the remaining binding at 10 µM in test [2] was determined as 72%; in test [3], 100%; in test [4] it was 17%; in test [5], 57%; in [6], 100%; in [8], 46%. The remaining binding at 10 µM in test [9] turned out to be 100%; in test [10], 45%; in test [11], 96%; in test [12], 8.4%; in test [13] it was 68%; in [14] it was 72%. The remaining binding at 10 µM in test [15] was determined as 100%; in test [16], 96%; in test [17], 22%; in test [18], 100%; in test [19] it was 0.55%; in [20], 100%. The remaining binding at 10 µM in test [21] came out at 5.2%; in [22], 100%; in test [23], 17%; in test [24], 44%; in test [25], 0.35%; in test [26] it was 70%. Also, the remaining binding at 10 µM in test [27] was 0.1%. Moreover, the “Percent Control(%)” value in test [7] is on record as 61%. For the same molecule, in test [28], the “apoptosis of AML cells” value is “about 50%”. Also, the IC50 in [29] is greater than 10 µM.
